Results from US5468772A, “Tripterinin compound and method” (Pharmagenesis, Inc., priority 1993, dated 1995).

Tests used:
[1] = tested on: IL2; assay: IL-2 production by PHA stimulated human PBLs (ELISA); type: cell-based; settings: 24 h
Description: (§1) The effect of tripterinin on the production of the cytokines IL-1b, IL2, IL-6, IFNγ, and TNFα was assessed by measurement of the concentration of these cytokines in PHA stimulated human PBL cultures. Cytokine levels were measured by standard ELISA methods using commercially available kits, as detailed in Example 6. Briefly, assay buffer was added to each of the wells of a microtiter plate containing pre-bound anti-cytokine antibody, followed by addition of standard or sample solution, diluted appropriately for the cytokine concentration measured, followed by a second reporter-labeled antibody specific against the anti-cytokine antibody. […]
(§2) Cytokine measurements were carried out using commercially available ELISA assay kits (R&D Systems), in accordance with the supplier's protocols. In brief, 100 μl of the assay buffer supplied was added to each of the wells of a microtiter plate containing pre-bound anti-cytokine antibody, followed by 100 μl of standard or sample solution, diluted appropriately for the concentration range measured. […]
(§3) Following two hours incubation, the plates were washed four times with assay buffer, and the second antibody, anti-anti-cytokine-horseradish peroxidase (HRP), was added to each well in a volume of 200 μl. […] Optical density was determined using a Molecular Devices microtiter plate reader.

[2] = tested on: human peripheral blood lymphocytes; assay: Suppression of human PBL proliferation in vitro ([3H]thymidine incorporation), with or without anti-CD3 (X-35); type: cell-based
Description: One measure of immunosuppression is suppression of stimulated peripheral blood lymphocyte (PBL) proliferation in vitro. In the assay detailed in Example 3, PBLs were activated in vitro by addition of anti-CD3 monoclonal antibody (X-35 antibody). At the same time, purified tripterinin or vehicle (control) was added to each culture, at selected concentrations. After 72 hours incubation, tritiated thymidine was added to the culture medium, and thymidine incorporation into DNA was assayed, as a measure of DNA synthesis associated with cell proliferation.
The ability of tripterifordin to inhibit anti-CD3 stimulated PBL proliferation was assayed at concentrations of 0, 0.78, 3.13, and 12.5 μg/ml, with the results shown in FIG. 9.
Human peripheral blood lymphocytes were prepared using an established method (Boyum). Human blood buffy coat samples, approximately 25 ml/donor, were obtained from the Stanford University Medical Center Blood Bank. Using sterile technique, the buffy coat samples were gently resuspended in a total volume of 100 ml with the addition of calcium and magnesium free Hank's balanced salt solution (HBSS, obtained from Gibco) at room temperature. A volume of 25 ml of the cell suspension was then layered onto 15 ml of Ficoll-Pacque (Pharmacia LKB Biotechnology, Inc.) in a 50 ml conical centrifuge tube. Tubes were centrifuged in a Beckman GPR tabletop centrifuge (GH-3.7 Rotor) at 400×g for 30 minutes at 15° C.
Following centrifugation, the PBL suspensions at the interfaces were transferred to new 50 ml tubes using a transfer pipette, and the PBL samples were resuspended in a total volume of 45 ml HBSS and centrifuged at 354×g for 10 minutes at 15° C. Supernatants were discarded. PBL's were resuspended in 10 ml HBSS, combined to make a total of 45 ml HBSS, and centrifuged at 265×g for 10 minutes at 15° C. The cell pellets were suspended in 10 ml of X-Vivo tissue culture medium (Bio Whittaker) and counted using a hemocytometer. Tissue culture medium was then added to achieve a final cell concentration of 1× 10^6 cells/ml. Additional dilutions were carried out as required for each assay.
Assays were carried out in 96 well sterile tissue culture plates (Costar 3790 and Costar 3595). A volume of 150 μl of X-Vivo medium or sterile distilled water was added to the outer wells of the plate to prevent evaporation of medium within the experimental wells. PBL's from 2 different donors were used in parallel in all experiments. A volume of 100 μl PBL suspension was added to each well using a multichannel pipette. Plates were incubated in an atmosphere of 93% air/7% CO2 in a tissue culture incubator at 37° C. X-35 (AMAC #0178), an anti CD-3 surface antigen antibody, was used at 5 ng/ml to stimulate PBL proliferation.
Tripterinin or tripterifordin was dissolved in ethanol (10 mg/ml) and then diluted in sterile X-Vivo tissue culture medium to obtain the final concentrations required for each experiment.
Four hours prior to the conclusion of incubation, 50 μl of X-Vivo tissue culture medium containing 8 μCi/ml [^3 H]Thymidine (Amersham, 49 Ci/mmol) was added to each tissue culture well. After 72 hours total incubation time, the cells were removed from the tissue culture wells and applied to filter paper using a cell harvester (Brandel Model MB-24). The filter paper was dried for one hour under a heat lamp and then cut into 1 cm discs. Each sample was placed in a scintillation vial containing 2 ml of scintillation fluid (Biosafe, Research Products International Corp.). Samples were counted in a Beckman LS 6000SC scintillation counter.

[3] = Solubility of crystalline tripterinin in organic solvents; type: physicochemical; settings: methylene chloride or acetone
[4] = tested on: IL-1b; assay: IL-1b production by PHA stimulated human PBLs (ELISA); type: cell-based; settings: 0.7 and 3.13 μg/ml tripterinin, 24 h
Description: as §1, §2, §3

## C[C@]12CCC[C@]3(COC1=O)[C@@H]2CC[C@@]12C[C@@H](CC[C@]13O)[C@](C)(O)C2 [tripterinin]
[1]; 0.7 μg/ml tripterinin
  decrease in IL2 production: 96%
[1]; 3.13 μg/ml tripterinin
  decrease in IL2 production: 96%
[2]; 0.78 μg/ml tripterinin, unstimulated and anti-CD3 stimulated PBLs
  inhibition of PBL proliferation: substantially complete inhibition
[2]; FIG. 8, 72 h
  Half maximal inhibition of PBL proliferation: approximately 0.5 μg/ml
[2]; stimulated and unstimulated (tripterinin), FIG. 9 (tripterifordin)
  inhibitory effect on PBL proliferation: inhibited PBL proliferation
[2]; unstimulated and anti-CD3 stimulated PBLs
  inhibition of PBL proliferation, dose dependence: dose dependent inhibition
[3]
  dissolution of crystalline compound: dissolved easily
[4]
  effect on IL-1B production: did not significantly affect
